The values that follow come from US9040518B2, “Chemical compounds” (GlaxoSmithKline LLC, priority 2010, dated 2015).

pIC50: −log10 of the molar value. Counter-ions that a name gives are not always drawn.

In general, pIC50 refers to −log10 of the IC50, conventionally taken in molar units. Higher therefore signals a small IC50.

ileal bile acid cotransporter (iBAT), sequence (Q12908 whole entry): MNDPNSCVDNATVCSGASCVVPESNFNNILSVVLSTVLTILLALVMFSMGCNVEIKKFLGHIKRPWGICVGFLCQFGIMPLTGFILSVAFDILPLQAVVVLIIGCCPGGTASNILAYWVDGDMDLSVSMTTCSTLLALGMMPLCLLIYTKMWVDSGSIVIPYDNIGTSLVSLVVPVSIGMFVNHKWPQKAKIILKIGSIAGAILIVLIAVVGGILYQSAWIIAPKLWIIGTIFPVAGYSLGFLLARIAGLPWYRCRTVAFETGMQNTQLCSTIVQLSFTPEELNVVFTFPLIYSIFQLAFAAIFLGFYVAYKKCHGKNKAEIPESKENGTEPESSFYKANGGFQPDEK

In this assay the target is ileal bile acid cotransporter (iBAT) (Homo sapiens (Human), UniProt Q12908). Kind of assay: Human iBAT inhibition: [3H]-taurocholate uptake into HEK293 cells expressing human iBAT. The settings on record: HEK293 cells transduced with human iBAT Bacmam virus, 90 minutes at ambient temperature, mean of at least 2 datapoints. Type of assay: cell-based. The method, then:
Method for Determination of Human iBAT Inhibition:
In preparation for measurement of bile acid uptake into cells expressing the ileal bile acid cotransporter (iBAT), HEK293 cells were cultured in DMEM/F12 supplemented with 10% FBS. Twenty four hours prior to running an experiment, cells were harvested when at a confluence of 80-90%. Cells were seeded in poly-d-lysine coated plates at 50,000 cells per well, and human iBAT Bacmam virus was added such that each well contains 3.67×10e6 pfu (73.4pfu/cell). Each assay plate was covered with Breathe Easy Seal and placed in an incubator for 24 hours to allow expression of the transporter.
On the day of the uptake experiment, 10 mM HEPES was added to Hank's Balanced Salt Solution, and the pH was adjusted to 7.4 with TRIS (HBSSH). The assay buffer was prepared by adding […] [^3H]-taurocholate and 10 μM cold taurocholate to room temperature HBSSH. A separate washing buffer was prepared by adding 10 μM cold taurocholate to HBSSH (˜30 ml per assay plate) and placed on ice. Using 100% DMSO, 8 point, 3-fold dilution curves for each test compound was prepared starting at 200 μM. Similarly, an 8 point dose response curve was prepared of the control compound [(3R,5R)-3-butyl-3-ethyl-7,8-bis(methyloxy)-5-phenyl-2,3,4,5-tetrahydro-1,4-benzothiazepine 1,1-dioxide (Brieaddy, L. E. WO9605188, 1996)] starting at 1.8 mM. Drug plates were created by adding 3 μL of each concentration to a v-bottom 96-well plate then diluted 60-fold with 177 μL of assay buffer. Plates were removed from the incubator and allowed to cool to ambient temperature. Media was aspirated, and wells were washed once with 300 μL HBSSH. 50 μL of each dose response curve concentration was added in triplicate by column to the assay plates, reserving column 10 for control (assay buffer+1.67% DMSO) and columns 11 and 12 for the control compound. Plates were incubated at ambient temperature for 90 minutes then the plates were aspirated then washed 1× with 300 μL of wash buffer. 220 μL of Microscint 20 was added to each well, and the plates were sealed. The amount of [^3H]-taurocholate in cell lysate was quantitated using a microplate scintillation counter on the following day.
IC50's can be generated using the formula, y=(Vmax*x^n)/(K^n+x^n).
The compound `CCCC[C@]1(CC)CS(=O)(=O)c2cc(CCCS(=O)(=O)O)c(OC)cc2[C@@H](c2ccccc2)N1` [Example 20, 3-[(3R,5R)-3-butyl-3-ethyl-7-(methyloxy)-1,1-dioxido-5-phenyl-2,3,4,5-tetrahydro-1,4-benzothiazepin-8-yl]-1-propanesulfonic acid] had a pIC50 of 8.40.
With `CCCC[C@]1(CC)CS(=O)(=O)c2cc(CN[C@@H](CO)C(=O)O)c(OC)cc2[C@@H](c2ccccc2)N1` [Example 52, N-{[(3R,5R)-3-butyl-3-ethyl-7-(methyloxy)-1,1-dioxido-5-phenyl-2,3,4,5-tetrahydro-1,4-benzothiazepin-8-yl]methyl}-L-serine bis-ammonium salt] the figure was 7.23; with `CCCC[C@]1(CC)CS(=O)(=O)c2cc(/C=C/P(=O)(O)O)c(OC)cc2[C@@H](c2ccccc2)N1` [Example 55, {(E)-2-[(3R,5R)-3-butyl-3-ethyl-7-(methyloxy)-1,1-dioxido-5-phenyl-2,3,4,5-tetrahydro-1,4-benzothiazepin-8-yl]ethenyl}phosphonic acid bis-ammonium salt], 6.88.
In turn, `CCCC[C@]1(CC)CS(=O)(=O)c2cc(C(=O)NCCS(=O)(=O)O)c(OC)cc2[C@@H](c2ccccc2)N1` [Example 3, 2-({[(3R,5R)-3-butyl-3-ethyl-7-(methyloxy)-1,1-dioxido-5-phenyl-2,3,4,5-tetrahydro-1,4-benzothiazepin-8-yl]carbonyl}amino)ethanesulfonic acid trifluoroacetate] gave a pIC50 of 8.70.
`CCCC[C@]1(CC)CS(=O)(=O)c2cc(CNCCP(=O)(O)O)c(OC)cc2[C@@H](c2ccccc2)N1` [Example 33, [2-({[(3R,5R)-3-butyl-3-ethyl-7-(methyloxy)-1,1-dioxido-5-phenyl-2,3,4,5-tetrahydro-1,4-benzothiazepin-8-yl]methyl}amino)ethyl]phosphonic acid trifluoroacetate salt] showed a pIC50 of 5.57.
Next, `CCCC[C@]1(CC)CS(=O)(=O)c2cc(CNC(CC(=O)O)CC(=O)O)c(N(C)C)cc2[C@@H](c2ccccc2)N1` [Example 69, 3-({[(3R,5R)-3-butyl-7-(dimethylamino)-3-ethyl-1,1-dioxido-5-phenyl-2,3,4,5-tetrahydro-1,4-benzothiazepin-8-yl]methyl}amino)pentanedioic acid bis-ammonium salt]: 7.72.
With `CCCC[C@]1(CC)CS(=O)(=O)c2cc(CNC(=O)CS(=O)(=O)O)c(OC)cc2[C@@H](c2ccccc2)N1` [Example 37, 2-({[(3R,5R)-3-butyl-3-ethyl-7-(methyloxy)-1,1-dioxido-5-phenyl-2,3,4,5-tetrahydro-1,4-benzothiazepin-8-yl]methyl}amino)-2-oxoethanesulfonic acid] the figure was 8.05.
With `CCCC[C@]1(CC)CS(=O)(=O)c2cc(CCC(=O)NCCS(=O)(=O)O)c(OC)cc2[C@@H](c2ccccc2)N1` [Example 15, 2-({3-[(3R,5R)-3-butyl-3-ethyl-7-(methyloxy)-1,1-dioxido-5-phenyl-2,3,4,5-tetrahydro-1,4-benzothiazepin-8-yl]propanoyl}amino)ethanesulfonic acid] the figure was 6.30.
`CCCC[C@]1(CC)CS(=O)(=O)c2cc(C(=O)NCC(C)(C)C(=O)O)c(OC)cc2[C@@H](c2ccccc2)N1` [Example 1, 3-({[(3R,5R)-3-butyl-3-ethyl-7-(methyloxy)-1,1-dioxido-5-phenyl-2,3,4,5-tetrahydro-1,4-benzothiazepin-8-yl]carbonyl}amino)-2,2-dimethylpropanoic acid] gave a negative logarithm of the IC50 (pIC50) of 7.49.
With `CCCC[C@]1(CC)CS(=O)(=O)c2cc(CCCC(=O)O)c(OC)cc2[C@@H](c2ccccc2)N1` [Example 23, 4-[(3R,5R)-3-butyl-3-ethyl-7-(methyloxy)-1,1-dioxido-5-phenyl-2,3,4,5-tetrahydro-1,4-benzothiazepin-8-yl]butanoic acid trifluoroacetate salt] the figure was 8.70; with `CCCC[C@]1(CC)CS(=O)(=O)c2cc(CCCO)c(OC)cc2[C@@H](c2ccccc2)N1` [Example 19, 3-[(3R,5R)-3-butyl-3-ethyl-7-(methyloxy)-1,1-dioxido-5-phenyl-2,3,4,5-tetrahydro-1,4-benzothiazepin-8-yl]-1-propanol], 6.21; with `CCCC[C@]1(CC)CS(=O)(=O)c2cc(CNC(C)(C)C(=O)O)c(OC)cc2[C@@H](c2ccccc2)N1` [Example 32, N-{[(3R,5R)-3-butyl-3-ethyl-7-(methyloxy)-1,1-dioxido-5-phenyl-2,3,4,5-tetrahydro-1,4-benzothiazepin-8-yl]methyl}-2-methylalanine trifluoroacetate salt], 6.72.
Consider `CCCC[C@]1(CC)CS(=O)(=O)c2cc(CCC(=O)NC(C)(C)C(=O)O)c(OC)cc2[C@@H](c2ccccc2)N1` [Example 16, N-{3-[(3R,5R)-3-butyl-3-ethyl-7-(methyloxy)-1,1-dioxido-5-phenyl-2,3,4,5-tetrahydro-1,4-benzothiazepin-8-yl]propanoyl}-2-methylalanine], for which the pIC50 is 6.14.
The compound `CCCC[C@]1(CC)CS(=O)(=O)c2cc(CN3CCC[C@@H]3C(=O)O)c(OC)cc2[C@@H](c2ccccc2)N1` [Example 57, 1-{[(3R,5R)-3-butyl-3-ethyl-7-(methyloxy)-1,1-dioxido-5-phenyl-2,3,4,5-tetrahydro-1,4-benzothiazepin-8-yl]methyl}-D-proline ammonium salt] had a pIC50 of 6.12.
Next, `CCCC[C@]1(CC)CS(=O)(=O)c2cc(CNCCP(=O)(O)OCC)c(OC)cc2[C@@H](c2ccccc2)N1` [Example 34, ethyl hydrogen [2-({[(3R,5R)-3-butyl-3-ethyl-7-(methyloxy)-1,1-dioxido-5-phenyl-2,3,4,5-tetrahydro-1,4-benzothiazepin-8-yl]methyl}amino)ethyl]phosphonate trifluoroacetate salt]: 5.55.
Take `CCCC[C@]1(CC)CS(=O)(=O)c2cc(CCC(=O)NCS(=O)(=O)O)c(OC)cc2[C@@H](c2ccccc2)N1` [Example 13, ({3-[(3R,5R)-3-butyl-3-ethyl-7-(methyloxy)-1,1-dioxido-5-phenyl-2,3,4,5-tetrahydro-1,4-benzothiazepin-8-yl]propanoyl}amino)methanesulfonic acid]: the pIC50 is 6.78.
Next, `CCCC[C@]1(CC)CS(=O)(=O)c2cc(CNCC(=O)O)c(N(C)C)cc2[C@@H](c2ccccc2)N1` [Example 68, N-{[(3R,5R)-3-butyl-7-(dimethylamino)-3-ethyl-1,1-dioxido-5-phenyl-2,3,4,5-tetrahydro-1,4-benzothiazepin-8-yl]methyl}glycine trifluoroacetate salt]: 9.00; `CCCC[C@]1(CC)CS(=O)(=O)c2cc(CN[C@H](CC(=O)O)C(=O)O)c(OC)cc2[C@@H](c2ccccc2)N1` [Example 28, N-{[(3R,5R)-3-butyl-3-ethyl-7-(methyloxy)-1,1-dioxido-5-phenyl-2,3,4,5-tetrahydro-1,4-benzothiazepin-8-yl]methyl}-D-aspartic acid trifluoroacetate salt]: 7.26; `CCCC[C@]1(CC)CS(=O)(=O)c2cc(CCC(=O)NCC(=O)O)c(OC)cc2[C@@H](c2ccccc2)N1` [Example 14, N-{3-[(3R,5R)-3-butyl-3-ethyl-7-(methyloxy)-1,1-dioxido-5-phenyl-2,3,4,5-tetrahydro-1,4-benzothiazepin-8-yl]propanoyl}glycine]: 6.56.
